Experimental data from patent publication US20100324087A1, “COMBINED USE OF ANGIOGENESIS INHIBITOR AND TAXANE” (EISAI R&D MANAGEMENT CO., LTD., priority 2008, published 2010).

Test system: Human non-small-cell lung cancer cell line A549
Test: Combination use of E7080 and docetaxel in subcutaneous transplanted models (in vivo) of A549
Conditions: alone, A549 subcutaneous transplant, nude mouse
Protocol: Human non-small-cell lung cancer cell line A549 (purchased from Dainippon Sumitomo Pharma Co., Ltd) was cultured in RPMI1640 (containing 10% FBS) in a 5% carbon dioxide gas incubator at 37° C. to about 80% confluence, and then the cells were treated with trypsin-EDTA and then collected. A 1×10^8 cells/mL suspension was prepared with a phosphate buffer, which was further added with an equivalent amount of matrigel matrix to give a 5×10^7 cells/mL suspension, and each 0.1 mL of the resulting cell suspension was subcutaneously transplanted to a nude mouse at the side of its body. Fourteen days after the transplantation, 4-(3-chloro-4-(cyclopropylaminocarbonyl)aminophenoxy)-7-methoxy-6-quinolinecarboxamide (hereinafter, also referred to as “E7080”) was orally administered for 10 or 30 mg/kg, once a day for four weeks, while 15 mg/kg of docetaxel was intravenously administered alone or in combination every four days for three times. The major and minor axes of tumors were measured with Digimatic caliper (Mitsutoyo Corporation), and tumor volumes and relative tumor volumes were calculated according to the following formulae:
Tumor Volume (TV)=Major axis of tumor (mm)×(Minor axis of tumor)^2 (mm^2)/2
Relative Tumor Volume (RTV)=Tumor volume on measurement day/Tumor volume on the first administration day.

Structure (SMILES)	Relative tumor volume on Day 29, Average ± standard deviation (Docetaxel 15 mg/kg intravenously every four days for three times)	Relative tumor volume on Day 29, Average ± standard deviation (E7080 10 mg/kg orally once a day for four weeks)	Relative tumor volume on Day 29, Average ± standard deviation (E7080 30 mg/kg orally once a day for four weeks)
CC(=O)O[C@@]12CO[C@@H]1C[C@H](O)[C@@]1(C)C(=O)[C@H](O)C3=C(C)[C@@H](OC(=O)[C@H](O)[C@@H](NC(=O)OC(C)(C)C)c4ccccc4)C[C@@](O)([C@@H](OC(=O)c4ccccc4)[C@H]21)C3(C)C [Docetaxel, docetaxel, reference compound]	1.48 ± 0.29	–	–
COc1cc2nccc(Oc3ccc(NC(=O)NC4CC4)c(Cl)c3)c2cc1C(N)=O [E7080, 4-(3-chloro-4-(cyclopropylaminocarbonyl)aminophenoxy)-7-methoxy-6-quinolinecarboxamide]	–	1.47 ± 0.16	1.14 ± 0.30
